{"source": "patent US7759331B2", "about": "“Pyridine-containing macroheterococylic compounds as kinase inhibitors” (Janssen Pharmaceutica NV, priority 2006, dated 2010)", "assay_in_all_cases": "Protein kinase selectivity panel", "assay_type_in_all_cases": "biochemical", "details_in_all_cases": "1.0 μM compound, 10 μM ATP", "key": {"ROCK-II(r)": {"target": "ROCK-II(r) (Rattus norvegicus, UniProt Q62868)", "sequence (Q62868 whole entry)": "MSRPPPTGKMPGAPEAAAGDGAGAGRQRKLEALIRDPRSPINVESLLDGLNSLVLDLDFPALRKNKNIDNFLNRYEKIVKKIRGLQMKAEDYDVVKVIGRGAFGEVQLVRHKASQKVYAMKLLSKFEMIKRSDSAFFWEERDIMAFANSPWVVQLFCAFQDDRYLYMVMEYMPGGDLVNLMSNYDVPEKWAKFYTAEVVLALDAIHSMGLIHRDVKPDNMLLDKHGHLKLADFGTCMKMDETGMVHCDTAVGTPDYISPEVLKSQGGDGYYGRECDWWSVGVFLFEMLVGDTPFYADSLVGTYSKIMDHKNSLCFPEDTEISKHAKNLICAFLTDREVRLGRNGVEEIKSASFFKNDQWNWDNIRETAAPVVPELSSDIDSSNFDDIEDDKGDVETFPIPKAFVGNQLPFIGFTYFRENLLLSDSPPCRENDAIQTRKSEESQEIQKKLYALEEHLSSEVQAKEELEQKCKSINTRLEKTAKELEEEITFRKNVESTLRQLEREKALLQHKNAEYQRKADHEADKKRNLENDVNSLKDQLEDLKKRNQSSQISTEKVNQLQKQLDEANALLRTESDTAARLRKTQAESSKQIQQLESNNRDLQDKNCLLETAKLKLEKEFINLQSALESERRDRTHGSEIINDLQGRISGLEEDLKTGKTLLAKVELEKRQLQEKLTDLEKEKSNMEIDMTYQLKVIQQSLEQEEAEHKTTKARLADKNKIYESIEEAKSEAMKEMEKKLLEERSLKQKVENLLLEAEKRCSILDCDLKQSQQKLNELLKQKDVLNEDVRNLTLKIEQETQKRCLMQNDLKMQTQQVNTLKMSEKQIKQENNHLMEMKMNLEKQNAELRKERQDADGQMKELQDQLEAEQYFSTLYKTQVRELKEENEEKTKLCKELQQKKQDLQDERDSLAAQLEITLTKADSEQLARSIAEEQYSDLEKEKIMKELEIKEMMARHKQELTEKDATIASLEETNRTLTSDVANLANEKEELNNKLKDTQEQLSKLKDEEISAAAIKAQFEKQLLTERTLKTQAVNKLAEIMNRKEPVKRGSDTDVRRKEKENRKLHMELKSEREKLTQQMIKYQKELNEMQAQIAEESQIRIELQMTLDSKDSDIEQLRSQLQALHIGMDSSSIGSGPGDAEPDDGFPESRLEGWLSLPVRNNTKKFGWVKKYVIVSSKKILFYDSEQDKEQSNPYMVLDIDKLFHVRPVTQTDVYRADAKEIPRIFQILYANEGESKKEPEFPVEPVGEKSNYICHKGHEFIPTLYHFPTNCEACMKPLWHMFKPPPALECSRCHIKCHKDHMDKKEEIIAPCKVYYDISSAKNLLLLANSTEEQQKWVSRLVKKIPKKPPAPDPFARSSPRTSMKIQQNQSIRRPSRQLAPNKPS", "outline": "(§1)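 At a fixed 1.0 μM compound, activity toward peptide or protein substrates was determined with ATP at 10 μM.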"}, "IGF-1R(h)": {"target": "IGF-1R(h) (Homo sapiens, UniProt P08069)", "sequence (P08069 31-1367)": "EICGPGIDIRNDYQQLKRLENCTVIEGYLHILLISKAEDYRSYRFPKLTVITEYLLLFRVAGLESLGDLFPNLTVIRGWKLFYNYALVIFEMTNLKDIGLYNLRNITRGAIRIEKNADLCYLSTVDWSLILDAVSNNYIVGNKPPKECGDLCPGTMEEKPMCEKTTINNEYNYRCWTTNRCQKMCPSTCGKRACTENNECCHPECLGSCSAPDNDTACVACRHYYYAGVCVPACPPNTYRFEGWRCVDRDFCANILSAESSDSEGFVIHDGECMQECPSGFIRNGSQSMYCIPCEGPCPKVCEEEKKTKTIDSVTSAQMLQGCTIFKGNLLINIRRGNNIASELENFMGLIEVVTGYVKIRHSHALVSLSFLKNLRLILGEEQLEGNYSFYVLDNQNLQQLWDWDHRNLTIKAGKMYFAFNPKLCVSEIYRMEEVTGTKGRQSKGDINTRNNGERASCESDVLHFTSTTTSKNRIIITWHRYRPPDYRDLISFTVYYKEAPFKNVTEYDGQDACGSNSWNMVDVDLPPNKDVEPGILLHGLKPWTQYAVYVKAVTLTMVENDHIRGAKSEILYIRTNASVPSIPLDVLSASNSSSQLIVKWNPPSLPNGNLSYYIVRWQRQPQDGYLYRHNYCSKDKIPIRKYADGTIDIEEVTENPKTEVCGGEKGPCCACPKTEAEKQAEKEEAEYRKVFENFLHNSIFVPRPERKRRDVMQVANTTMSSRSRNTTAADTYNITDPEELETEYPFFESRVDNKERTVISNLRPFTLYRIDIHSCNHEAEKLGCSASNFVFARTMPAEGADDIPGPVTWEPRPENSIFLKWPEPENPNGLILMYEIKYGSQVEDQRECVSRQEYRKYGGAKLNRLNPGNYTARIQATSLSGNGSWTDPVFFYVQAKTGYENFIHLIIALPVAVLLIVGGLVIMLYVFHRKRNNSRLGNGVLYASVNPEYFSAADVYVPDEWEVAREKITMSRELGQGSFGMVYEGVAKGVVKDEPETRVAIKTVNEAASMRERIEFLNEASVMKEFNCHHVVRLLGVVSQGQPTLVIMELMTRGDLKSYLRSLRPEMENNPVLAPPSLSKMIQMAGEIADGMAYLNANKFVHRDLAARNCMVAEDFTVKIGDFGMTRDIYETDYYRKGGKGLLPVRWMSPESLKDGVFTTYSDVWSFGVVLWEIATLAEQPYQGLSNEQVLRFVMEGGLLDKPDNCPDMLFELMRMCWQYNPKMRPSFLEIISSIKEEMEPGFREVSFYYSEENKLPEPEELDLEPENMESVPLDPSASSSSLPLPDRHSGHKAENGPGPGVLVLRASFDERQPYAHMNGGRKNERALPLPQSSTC", "outline": "as §1"}, "JNK2α2(h)": {"target": "JNK2α2(h) (Homo sapiens, UniProt P45984)", "sequence (P45984 whole entry)": "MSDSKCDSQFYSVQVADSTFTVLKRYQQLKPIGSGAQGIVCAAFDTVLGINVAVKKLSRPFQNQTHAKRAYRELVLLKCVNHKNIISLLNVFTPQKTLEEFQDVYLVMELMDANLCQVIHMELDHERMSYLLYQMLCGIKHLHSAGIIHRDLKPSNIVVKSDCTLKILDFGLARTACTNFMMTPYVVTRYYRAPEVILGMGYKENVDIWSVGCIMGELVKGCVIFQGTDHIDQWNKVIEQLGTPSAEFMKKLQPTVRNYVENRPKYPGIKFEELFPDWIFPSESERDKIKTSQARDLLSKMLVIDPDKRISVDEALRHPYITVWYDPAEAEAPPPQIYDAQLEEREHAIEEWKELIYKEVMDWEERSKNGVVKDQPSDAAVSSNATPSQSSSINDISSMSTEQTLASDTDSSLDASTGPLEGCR", "outline": "as §1"}, "EphB4(h)": {"target": "T1, EphB4(h) (Homo sapiens, UniProt P54760)", "T1 sequence (P54760 16-987)": "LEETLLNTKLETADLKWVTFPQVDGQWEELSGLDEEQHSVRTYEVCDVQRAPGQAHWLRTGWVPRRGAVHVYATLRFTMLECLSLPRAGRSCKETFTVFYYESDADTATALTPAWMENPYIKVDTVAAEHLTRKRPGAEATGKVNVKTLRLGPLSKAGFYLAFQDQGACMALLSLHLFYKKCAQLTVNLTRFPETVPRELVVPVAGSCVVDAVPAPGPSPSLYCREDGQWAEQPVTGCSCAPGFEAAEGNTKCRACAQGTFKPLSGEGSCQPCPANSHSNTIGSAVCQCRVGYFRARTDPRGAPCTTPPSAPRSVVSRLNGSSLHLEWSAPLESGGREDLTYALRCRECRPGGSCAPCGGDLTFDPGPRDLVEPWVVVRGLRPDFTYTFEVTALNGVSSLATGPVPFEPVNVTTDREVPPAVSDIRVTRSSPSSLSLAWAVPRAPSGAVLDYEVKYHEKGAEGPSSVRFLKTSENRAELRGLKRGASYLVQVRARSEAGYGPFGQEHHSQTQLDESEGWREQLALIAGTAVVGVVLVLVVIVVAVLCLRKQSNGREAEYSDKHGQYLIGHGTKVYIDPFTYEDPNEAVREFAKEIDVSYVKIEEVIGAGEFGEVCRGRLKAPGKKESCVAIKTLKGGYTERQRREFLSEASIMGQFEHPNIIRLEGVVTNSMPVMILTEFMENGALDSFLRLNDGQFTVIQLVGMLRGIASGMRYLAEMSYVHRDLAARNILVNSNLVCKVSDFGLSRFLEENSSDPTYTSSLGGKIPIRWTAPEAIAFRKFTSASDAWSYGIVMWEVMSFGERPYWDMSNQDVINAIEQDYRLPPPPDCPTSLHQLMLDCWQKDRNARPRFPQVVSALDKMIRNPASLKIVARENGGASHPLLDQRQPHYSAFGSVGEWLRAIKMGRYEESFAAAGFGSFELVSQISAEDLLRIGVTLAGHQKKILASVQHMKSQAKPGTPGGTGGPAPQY", "outline": "as §1"}, "cSRC(h)": {"target": "cSRC(h) (Homo sapiens, UniProt P12931)", "sequence (P12931 whole entry)": "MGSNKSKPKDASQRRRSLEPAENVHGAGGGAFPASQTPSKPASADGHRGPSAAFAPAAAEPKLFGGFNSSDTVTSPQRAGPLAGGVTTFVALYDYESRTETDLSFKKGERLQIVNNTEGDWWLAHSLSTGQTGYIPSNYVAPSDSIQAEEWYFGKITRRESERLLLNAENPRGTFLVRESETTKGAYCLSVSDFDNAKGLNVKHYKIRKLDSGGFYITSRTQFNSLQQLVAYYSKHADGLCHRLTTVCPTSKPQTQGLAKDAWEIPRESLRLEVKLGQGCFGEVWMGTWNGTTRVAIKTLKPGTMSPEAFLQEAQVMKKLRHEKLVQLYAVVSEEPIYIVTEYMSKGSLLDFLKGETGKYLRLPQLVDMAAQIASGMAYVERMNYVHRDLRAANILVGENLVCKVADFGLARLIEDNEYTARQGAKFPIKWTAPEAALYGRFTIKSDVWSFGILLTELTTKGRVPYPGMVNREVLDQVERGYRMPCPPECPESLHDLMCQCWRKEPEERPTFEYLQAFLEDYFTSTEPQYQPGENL", "outline": "as §1"}, "MKK6(h)": {"target": "T2, MKK6(h) (Homo sapiens, UniProt P52564)", "T2 sequence (P52564 1-334)": "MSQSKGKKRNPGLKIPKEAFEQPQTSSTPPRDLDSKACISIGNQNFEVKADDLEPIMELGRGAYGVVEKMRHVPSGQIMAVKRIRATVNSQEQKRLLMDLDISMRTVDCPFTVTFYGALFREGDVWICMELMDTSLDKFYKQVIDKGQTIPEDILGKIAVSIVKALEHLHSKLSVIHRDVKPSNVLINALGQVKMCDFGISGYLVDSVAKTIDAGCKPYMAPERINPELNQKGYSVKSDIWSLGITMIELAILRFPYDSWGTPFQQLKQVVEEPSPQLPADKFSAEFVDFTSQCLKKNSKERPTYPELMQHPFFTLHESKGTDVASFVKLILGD", "outline": "as §1"}, "MAPK2(m)": {"target": "MAPK2(m) (Mus musculus, UniProt P63085)", "sequence (P63085 whole entry)": "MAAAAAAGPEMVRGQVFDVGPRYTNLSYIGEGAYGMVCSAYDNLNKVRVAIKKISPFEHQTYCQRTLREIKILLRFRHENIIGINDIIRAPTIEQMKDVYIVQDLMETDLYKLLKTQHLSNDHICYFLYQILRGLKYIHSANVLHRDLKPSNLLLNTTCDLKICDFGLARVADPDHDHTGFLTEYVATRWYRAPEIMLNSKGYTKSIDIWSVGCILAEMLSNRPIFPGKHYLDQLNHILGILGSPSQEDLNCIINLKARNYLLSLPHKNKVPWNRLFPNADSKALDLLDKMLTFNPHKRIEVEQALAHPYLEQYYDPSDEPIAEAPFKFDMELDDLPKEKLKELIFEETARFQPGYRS", "outline": "as §1"}, "Yes(h)": {"target": "T3, Yes(h) (Homo sapiens, UniProt P07947)", "T3 construct": "purchased Upstate Cell Signaling Solutions (KinaseProfiler Selectivity Screening Service)", "outline": "as §1"}, "PAK2(h)": {"target": "PAK2(h) (Homo sapiens, UniProt Q13177)", "sequence (Q13177 whole entry)": "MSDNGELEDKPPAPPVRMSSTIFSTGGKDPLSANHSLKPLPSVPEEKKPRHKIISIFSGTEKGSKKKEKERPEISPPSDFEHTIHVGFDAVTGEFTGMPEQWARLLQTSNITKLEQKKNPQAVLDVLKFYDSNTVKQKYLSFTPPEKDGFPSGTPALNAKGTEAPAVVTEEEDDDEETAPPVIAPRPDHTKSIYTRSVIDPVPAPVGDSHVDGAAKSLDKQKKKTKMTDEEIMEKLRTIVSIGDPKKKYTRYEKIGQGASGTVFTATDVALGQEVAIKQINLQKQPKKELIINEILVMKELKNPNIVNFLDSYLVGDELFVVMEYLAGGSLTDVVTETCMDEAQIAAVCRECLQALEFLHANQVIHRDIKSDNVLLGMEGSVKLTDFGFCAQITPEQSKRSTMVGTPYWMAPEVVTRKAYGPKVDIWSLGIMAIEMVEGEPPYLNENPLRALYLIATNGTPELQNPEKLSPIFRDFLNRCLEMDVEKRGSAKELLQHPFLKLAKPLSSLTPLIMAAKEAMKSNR", "outline": "as §1"}, "SGK(h)": {"target": "T4, SGK(h) (Homo sapiens, UniProt O00141, S422D)", "T4 sequence (O00141 60-431 S422D limits assumed)": "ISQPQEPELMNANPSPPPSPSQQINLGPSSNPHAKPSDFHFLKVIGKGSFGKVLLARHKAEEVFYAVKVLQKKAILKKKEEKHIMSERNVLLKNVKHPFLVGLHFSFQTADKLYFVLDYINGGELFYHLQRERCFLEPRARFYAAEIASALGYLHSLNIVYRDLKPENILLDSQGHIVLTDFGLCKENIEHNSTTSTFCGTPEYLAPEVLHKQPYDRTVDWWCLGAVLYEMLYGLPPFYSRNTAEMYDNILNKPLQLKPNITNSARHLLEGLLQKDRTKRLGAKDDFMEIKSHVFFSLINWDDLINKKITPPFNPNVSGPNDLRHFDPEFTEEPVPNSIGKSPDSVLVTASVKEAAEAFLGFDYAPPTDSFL", "outline": "as §1"}}}
{"smiles": "CN(C)c1nc2ccc1CCCCn1cc(c3ccccc31)C1=C(C(=O)NC1=O)c1cn(c3ccccc13)CCC2", "note": "[Cpd 1, 31-(dimethylamino)-5,15,25,32-tetraazaheptacyclo[28.2.2.1^5,12.1^18,25.0^6,11.0^13,17.0^19,24]hexatriaconta-1(32),6,8,10,12(36),13(17),18(35),19,21,23,30,33-dodecaene-14,16-dione]", "values": [{"measurement": "Activity at Protein Kinase Assays (% of control), ROCK-II(r)", "setting": "ROCK-II(r)", "value": "101 % of control"}, {"measurement": "Activity at Protein Kinase Assays (% of control), IGF-1R(h)", "setting": "IGF-1R(h)", "value": "84 % of control"}, {"measurement": "Activity at Protein Kinase Assays (% of control), JNK2α2(h)", "setting": "JNK2α2(h)", "value": "96 % of control"}, {"measurement": "Activity at Protein Kinase Assays (% of control), EphB4(h)", "setting": "EphB4(h)", "value": "89 % of control"}, {"measurement": "Activity at Protein Kinase Assays (% of control), cSRC(h)", "setting": "cSRC(h)", "value": "81 % of control"}, {"measurement": "Activity at Protein Kinase Assays (% of control), MKK6(h)", "setting": "MKK6(h)", "value": "102 % of control"}, {"measurement": "Activity at Protein Kinase Assays (% of control), MAPK2(m)", "setting": "MAPK2(m)", "value": "95 % of control"}, {"measurement": "Activity at Protein Kinase Assays (% of control), Yes(h)", "setting": "Yes(h)", "value": "96 % of control"}, {"measurement": "Activity at Protein Kinase Assays (% of control), PAK2(h)", "setting": "PAK2(h)", "value": "93 % of control"}, {"measurement": "Activity at Protein Kinase Assays (% of control), SGK(h)", "setting": "SGK(h)", "value": "93 % of control"}]}
{"smiles": "CN(C)c1cc2cc(n1)CCCn1cc(c3ccccc31)C1=C(C(=O)NC1=O)c1cn(c3ccccc13)CCC2", "note": "[Cpd 2, 20-(dimethylamino)-4,14,19,26-tetraazaheptacyclo[24.6.1.1^7,14.1^18,22.0^2,6.0^8,13.0^27,32]pentatriaconta-1(33),2(6),7(35),8,10,12,18(34),19,21,27,29,31-dodecaene-3,5-dione]", "values": [{"measurement": "Activity at Protein Kinase Assays (% of control), ROCK-II(r)", "setting": "ROCK-II(r)", "value": "92 % of control"}, {"measurement": "Activity at Protein Kinase Assays (% of control), IGF-1R(h)", "setting": "IGF-1R(h)", "value": "37 % of control"}, {"measurement": "Activity at Protein Kinase Assays (% of control), JNK2α2(h)", "setting": "JNK2α2(h)", "value": "106 % of control"}, {"measurement": "Activity at Protein Kinase Assays (% of control), EphB4(h)", "setting": "EphB4(h)", "value": "103 % of control"}, {"measurement": "Activity at Protein Kinase Assays (% of control), cSRC(h)", "setting": "cSRC(h)", "value": "105 % of control"}, {"measurement": "Activity at Protein Kinase Assays (% of control), MKK6(h)", "setting": "MKK6(h)", "value": "86 % of control"}, {"measurement": "Activity at Protein Kinase Assays (% of control), MAPK2(m)", "setting": "MAPK2(m)", "value": "95 % of control"}, {"measurement": "Activity at Protein Kinase Assays (% of control), Yes(h)", "setting": "Yes(h)", "value": "79 % of control"}, {"measurement": "Activity at Protein Kinase Assays (% of control), PAK2(h)", "setting": "PAK2(h)", "value": "103 % of control"}, {"measurement": "Activity at Protein Kinase Assays (% of control), SGK(h)", "setting": "SGK(h)", "value": "105 % of control"}]}
{"smiles": "O=C1NC(=O)C2=C1c1cn(c3ccccc13)CCCc1cc(nc(N3CCCC3)c1)CCCn1cc2c2ccccc21", "note": "[Cpd 6, 20-pyrrolidin-1-yl-4,14,19,26-tetraazaheptacyclo[24.6.1.1^7,14.1^18,22.0^2,6.0^8,13.0^27,32]pentatriaconta-1(33),2(6),7(35),8,10,12,18(34),19,21,27,29,31-dodecaene-3,5-dione]", "values": [{"measurement": "Activity at Protein Kinase Assays (% of control), ROCK-II(r)", "setting": "ROCK-II(r)", "value": "83 % of control"}, {"measurement": "Activity at Protein Kinase Assays (% of control), IGF-1R(h)", "setting": "IGF-1R(h)", "value": "42 % of control"}, {"measurement": "Activity at Protein Kinase Assays (% of control), JNK2α2(h)", "setting": "JNK2α2(h)", "value": "114 % of control"}, {"measurement": "Activity at Protein Kinase Assays (% of control), EphB4(h)", "setting": "EphB4(h)", "value": "109 % of control"}, {"measurement": "Activity at Protein Kinase Assays (% of control), cSRC(h)", "setting": "cSRC(h)", "value": "97 % of control"}, {"measurement": "Activity at Protein Kinase Assays (% of control), MKK6(h)", "setting": "MKK6(h)", "value": "91 % of control"}, {"measurement": "Activity at Protein Kinase Assays (% of control), MAPK2(m)", "setting": "MAPK2(m)", "value": "103 % of control"}, {"measurement": "Activity at Protein Kinase Assays (% of control), Yes(h)", "setting": "Yes(h)", "value": "58 % of control"}, {"measurement": "Activity at Protein Kinase Assays (% of control), PAK2(h)", "setting": "PAK2(h)", "value": "100 % of control"}, {"measurement": "Activity at Protein Kinase Assays (% of control), SGK(h)", "setting": "SGK(h)", "value": "109 % of control"}]}
{"smiles": "O=C1NC(=O)C2=C1c1cn(c3ccccc13)CCCc1ccc(c(N3CCCC3)n1)CCCn1cc2c2ccccc21", "note": "[Cpd 7, 31-pyrrolidin-1-yl-5,15,25,30-tetraazaheptacyclo[27.2.2.1^5,12.1^18,25.0^6,11.0^13,17.0^19,24]pentatriaconta-1(31),6,8,10,12(35),13(17),18(34),19,21,23,29,32-dodecaene-14,16-dione]", "values": [{"measurement": "Activity at Protein Kinase Assays (% of control), ROCK-II(r)", "setting": "ROCK-II(r)", "value": "91 % of control"}, {"measurement": "Activity at Protein Kinase Assays (% of control), IGF-1R(h)", "setting": "IGF-1R(h)", "value": "106 % of control"}, {"measurement": "Activity at Protein Kinase Assays (% of control), JNK2α2(h)", "setting": "JNK2α2(h)", "value": "110 % of control"}, {"measurement": "Activity at Protein Kinase Assays (% of control), EphB4(h)", "setting": "EphB4(h)", "value": "100 % of control"}, {"measurement": "Activity at Protein Kinase Assays (% of control), cSRC(h)", "setting": "cSRC(h)", "value": "113 % of control"}, {"measurement": "Activity at Protein Kinase Assays (% of control), MKK6(h)", "setting": "MKK6(h)", "value": "85 % of control"}, {"measurement": "Activity at Protein Kinase Assays (% of control), MAPK2(m)", "setting": "MAPK2(m)", "value": "99 % of control"}, {"measurement": "Activity at Protein Kinase Assays (% of control), Yes(h)", "setting": "Yes(h)", "value": "43 % of control"}, {"measurement": "Activity at Protein Kinase Assays (% of control), PAK2(h)", "setting": "PAK2(h)", "value": "102 % of control"}, {"measurement": "Activity at Protein Kinase Assays (% of control), SGK(h)", "setting": "SGK(h)", "value": "93 % of control"}]}
